Structures can show the parent of a compound that is named as a salt.
How the values were obtained:
human-type OT7T022 [1] = target: T1, human-type OT7T022 (Homo sapiens, UniProt Q9GZQ6); test: Binding inhibiting activity using human-type OT7T022-expressing CHO cell; conditions: 125I-labeled Y-RFRP-3 100 pM, membrane fraction, room temperature 1.5 hours; read-out: IC50 value (binding inhibiting rate)
T1 construct: expressed in transfected cells; host or cells: CHO cells (membrane fraction)
Method: Assessment of Binding Inhibiting Activity of Test Compound Using Human-Type OT7T022-Expressing CHO Cell
Twenty μm of a peptide (Y-RFRP-3) (sequence: Tyr-Val-Pro-Asn-Leu-Pro-Gln-Arg-Phe-amide) (0.1 mM) in which a Tyr residue had been added to a N-terminus of hRFRP-3-8 (sequence: Val-Pro-Asn-Leu-Pro-Gln-Arg-Phe-amide) having binding inhibiting activity equivalent to that of endogenous human-type RFRP-3 (hRFRP-3-28) for human-type OT7T022-expressing CHO cell and 10 μl of distilled water were mixed, 20 μl of a lactoperoxidase solution (Sigma, prepared using 0.1 M HEPES-NaOH, pH 7.0 in 10 μg/mL), 10 μl of Iodine-125 (Amersham, IMS-30, 74 MBq), and 20 μl of 0.005% hydrogen peroxide (Wako Pure Chemical Industries, Ltd.) were successively mixed therein, the mixture was allowed to stand at room temperature for 10 minutes, 600 μl of 0.1% TFA-water was added, this was separated by reverse phase HPLC, a peak of the labeled form was collected, an equivalent amount of a buffer for a binding test (50 mM TrisHCl (pH 7.5), 0.1% BSA, 5 mM EDTA, 0.5 mM PMSF, 20 μg/mL leupeptin, 0.1 μg/mL pepstatin A, […]) was added, and this was immediately stored on ice. A part thereof was 1/100 diluted, radioactivity was measured with a γ-counter, and the remaining authentic product was distributed, which was stored at −30° C.
To a 96-well microplate were added 1 μg of a membrane fraction, a compound and Y-RFRP-3 labeled with ^125I, which had been diluted with a reaction buffer (50 mM Tris-HCl, 5 mM EDTA, 0.1% BSA, 0.5 mM PMSF, 20 μg/ml leupeptin, 0.1 μg/ml pepstatin A, 4 μg/ml E-64, 10 mM MgCl2, pH 7.5), to 100 pM to react them at room temperature for 1.5 hours. For measuring non-specific binding, non-labeled Y-RFRP-3 was further added to […]. Then, a membrane fraction was transferred to a unifilter GF/C (Perkin Elmer) by filtering the reaction mixture using a cell harvester (Perkin Elmer), and this was washed with a cooled 50 mM Tris buffer (pH 7.5) five times. The filter was dried, Microsinti (Packard) was added to the filter, and radioactivity was measured with Topcount (Packard).
A binding inhibiting rate (IC50 value) of a test compound is shown in [Table 1].

human-type OT7T022 [2] = target: T1, human-type OT7T022; test: Antagonist activity in cAMP production inhibiting test system using human-type OT7T022-expressing CHO cell; format: cell-based; conditions: agonist human-type RFRP-3-8 20 nM + forskolin 2 μM, intracellular cAMP amount
Method: Test of Antagonist Activity of Compound in Camp Production Inhibiting Test System Using Human-Type OT7T022-Expressing CHO Cell
Antagonist activity of a test compound was measured in an intracellular cAMP production inhibiting test system of a CHO cell expressing human-type OT7T022. In the cAMP production inhibiting test, as an assay buffer, a Hanks' balanced salt solution (Gibco) to which 20 mM HEPES pH 7.4, 0.1% bovine serum albumin, and 0.2 mM 3-isobutyl-1-methylxanthine (Sigma) had been added, was used. A sample compound was adjusted with an assay buffer so that the final concentration became 10^−5M, 10^−6M, 10^−7M, 10^−8M, or 10^−10M. An agonist: human-type RFRP-3-8 (Val-Pro-Asn-Leu-Pro-Gln-Arg-Phe-amide) was diluted with an assay buffer obtained by adding 4 μM (final concentration 2 μM) forscoline to 40 nM (final concentration 20 nM). A human-type OT7T022-expressing CHO cell was passaged on a 96-well plate at 4×10^4/well, and cultured at 37° C., 5% CO2 and 95% air for one day. The plate which had been cultured for one day was washed with an assay buffer (150 μl) two times and, after 30 minutes, this was cultured for 30 minutes at 37° C. and 100% air. […] An intracellular cAMP amount was measured according to a protocol of the present kit using cAMP-Screen™ system (ABI). […]

rat-type OT7T022 = target: T2, rat-type OT7T022 (Rattus norvegicus, UniProt Q9EP86); test: Binding inhibiting activity using rat-type OT7T022-expressing CHO cell membrane fraction; conditions: iodine-labeled Y-RFRP-3 100 pM, membrane fraction 0.75 μg/well
T2 construct: expressed in transfected cells; host or cells: CHO cells (membrane fraction)
T2 sequence (Q9EP86 whole entry): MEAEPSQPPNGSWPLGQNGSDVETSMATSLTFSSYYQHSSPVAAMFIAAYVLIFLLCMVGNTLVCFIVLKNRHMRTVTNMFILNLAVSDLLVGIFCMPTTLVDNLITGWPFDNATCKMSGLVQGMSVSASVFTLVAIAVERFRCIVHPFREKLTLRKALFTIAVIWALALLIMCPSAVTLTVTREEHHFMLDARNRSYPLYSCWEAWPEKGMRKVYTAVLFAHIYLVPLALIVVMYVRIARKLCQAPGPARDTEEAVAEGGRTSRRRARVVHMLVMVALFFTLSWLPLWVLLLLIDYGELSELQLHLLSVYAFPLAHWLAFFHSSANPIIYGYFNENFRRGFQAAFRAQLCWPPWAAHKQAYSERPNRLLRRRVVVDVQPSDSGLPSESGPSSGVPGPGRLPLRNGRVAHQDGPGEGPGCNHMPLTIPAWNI
Method: Assessment of Binding Inhibiting Activity of Test Compound Using Rat-Type OT7T022-Expressing CHO Cell
A flask in which a rat-type OT7T022-expressing CHO cell had been cultured was washed with 5 mM EDTA/PBS, cells were peeled with 5 mM EDTA/PBS, and cells were recovered by centrifugation, suspended in 25 mL of a buffer for preparing a membrane fraction (50 mM Tris-HCl, pH 7.5, 5 mM EDTA, 0.5 mM PMSF (manufactured by Wako Pure Chemical Industries, Ltd.), […] (manufactured by Peptide Laboratory), 0.1 μg/mL pepstatin A (manufactured by Peptide Laboratory), 4 μg/mL E-64 (manufactured by Peptide Laboratory)), and homogenized on an ice using Polytron (12,000 rpm, 15 seconds×3 times). This was centrifuged in a high speed cooling centrifuge at 4° C. and 1,000 g for 10 minutes, and the supernatant was recovered. 25 mL of a buffer for preparing a membrane fraction was added to precipitates, and the supernatant was recovered by the same procedure. These supernatants were combined, subjected to a cell strainer, dispensed into tubes for a supercentrifuge, and centrifuged at 4° C. and 100,000 g for 1 hour. The pellet was suspended in a small amount of a buffer for preparing a membrane fraction, this was suspended using a Teflon (registered trade mark) homogenizer, a protein amount was measured using a part, and the remaining was dispensed, and stored at −80° C.
Using an assay buffer (50 mM Tris-HCl, pH 7.5, 5 mM EDTA, 0.5 mM PMSF, 20 μg/mL leupeptin, 0.1 μg/mL pepstatin A, 4 μg/mL E-64, 0.1% bovine serum albumin, 10 mM MgCl2), a membrane fraction of a rat-type OT7T022-expressing CHO cell was diluted to the final concentration of 0.75 μg/well, and iodine-labeled Y-RFRP-3 was diluted to the final concentration of 100 pM. Regarding a sample compound, a 10^−2M or 10^−3M stock solution was diluted with an assay buffer so that the final concentration became 10^−5M, 10^−6M, 10^−7M, 10^−8M, 10^−9M, 10^−10M or 10^−11M. For non-specific binding, hRFRP-3-8 having the final concentration of 10^−5M was prepared. Using a polypropylene 96-well plate, a prepared sample solution, a non-specific binding solution, and 50 μl of an assay buffer for total binding were dispensed, 25 μl of an iodine-labeled form diluent was added, the mixture was stirred, 25 μl of a rat-type OT7T022-expressing CHO cell membrane fraction solution was dispensed, and this was stirred, and incubated at room temperature for 1.5 hours. This was transferred to a unifilter (Perkin Elmer) pre-wetted with a washing buffer (50 mM Tris-HCl, pH 7.5) using a harvester for a 96-well plate (Packard), and this was washed with a washing buffer six times, and sufficiently dried. 50 μl of Microscinti O (Packard) was dispensed, radioactivity was measured with Top Count (Packard), and data were analyzed in a triplicate manner. Binding inhibiting activity (IC50 value) of a test compound for rat-type OT7T022 is shown in [Table 3].

Measured: IC50

T1 sequence (Q9GZQ6 whole entry): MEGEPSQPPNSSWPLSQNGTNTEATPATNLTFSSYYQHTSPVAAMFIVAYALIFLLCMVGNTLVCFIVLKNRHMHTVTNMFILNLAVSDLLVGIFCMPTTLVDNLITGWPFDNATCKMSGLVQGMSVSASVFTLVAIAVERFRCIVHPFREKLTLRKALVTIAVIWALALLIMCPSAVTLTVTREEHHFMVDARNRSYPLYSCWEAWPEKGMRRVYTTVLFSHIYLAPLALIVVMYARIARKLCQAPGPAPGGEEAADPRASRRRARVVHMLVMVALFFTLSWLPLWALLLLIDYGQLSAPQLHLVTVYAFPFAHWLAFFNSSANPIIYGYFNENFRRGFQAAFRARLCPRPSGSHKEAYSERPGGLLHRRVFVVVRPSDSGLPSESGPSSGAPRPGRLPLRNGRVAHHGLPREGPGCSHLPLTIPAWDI

COc1c(OCCCNCCCc2ccccc2)cccc1[C@H]1O[C@H](CC(=O)NCc2ccccc2F)C(=O)N(CC(C)(C)C)c2ccc(Cl)cc21 (relative stereo) [Example 3, 2-(3,5-trans-7-Chloro-1-(2,2-dimethylpropyl)-5-{2-methoxy-3-[3-(3-phenylpropylamino)propoxy]phenyl}-2-oxo-1,2,3,5-tetrahydro-4,1-benzoxazepin-3-yl)-N-(2-fluorobenzyl)acetamide hydrochloride]
< 1000 nM: all assays above
